target: mouse TRPM3α2 (mTRPM3) ion channel (Mus musculus (Mouse), UniProt J9SQF3); experiment: TRPM3 ion channel driven Ca2+ uptake, Fluo-4 AM assay, mTRPM3alpha2 overexpressing flip-in HEK293 cells stimulated with pregnenolone sulfate; type: cell-based; settings: PS 50 μM, cpds 200-299
Procedure: Part B Monitoring the TRPM3 Ion Channel Driven Ca^2+ Uptake.
In order to monitor the inhibition of the mouse TRPM3α2 (mTRPM3) ion channel by the compounds of the invention, a cellular system making use of an mTRPM3alpha2 or hTRPM3 overexpressing cell line (flip-in HEK293) was used. The TRPM3 channel was stimulated/opened with Pregnenolone sulfate (PS) (50 μM) which results in Ca^2+ influx.
For mTRPM3, the intracellular Ca^2+ was measured with a Calcium responsive dye. Fluor-4 AM ester (Invitrogen). Cells were cultured until a confluence of 80-90%, washed with Versene (Invitrogen) and detached from the surface by a short incubation with 0.05% Trypsin (Invitrogen). The trypsination process was stopped by the addition of complete cell culture medium (DMEM, glutamax, 10% FCS,NEAA,Pen-Strep). Cells were collected and resuspended in Krebs buffer without Calcium at RT.
Prior the cell seeding (±2000 cells/well into a black, 384 well plate (Greiner)) the diluted compound was added in the assay plate, together with the PS dissolved in Krebs buffer containing Calcium. […] Directly after cell addition the plates were read on an Envision fluorescence reader (Perkin Elmer) by an Excitation of 485 nm and emission at 535 nm.
Channel inhibition was calculated compared to a non-PS stimulated control versus a condition stimulated with PS (50 μM) with vehicle. The ability of the compounds of the invention to inhibit this activity was determined as: Percentage inhibition=[1-((RFU determined for sample with test compound present—RFU determined for sample with positive control inhibitor) divided by (RFU determined in the presence of vehicle—RFU determined for sample with positive control inhibitor))]*100.

Sequence of mouse TRPM3α2 (mTRPM3) ion channel (J9SQF3 other isoform, or with tags, fused parts or gaps): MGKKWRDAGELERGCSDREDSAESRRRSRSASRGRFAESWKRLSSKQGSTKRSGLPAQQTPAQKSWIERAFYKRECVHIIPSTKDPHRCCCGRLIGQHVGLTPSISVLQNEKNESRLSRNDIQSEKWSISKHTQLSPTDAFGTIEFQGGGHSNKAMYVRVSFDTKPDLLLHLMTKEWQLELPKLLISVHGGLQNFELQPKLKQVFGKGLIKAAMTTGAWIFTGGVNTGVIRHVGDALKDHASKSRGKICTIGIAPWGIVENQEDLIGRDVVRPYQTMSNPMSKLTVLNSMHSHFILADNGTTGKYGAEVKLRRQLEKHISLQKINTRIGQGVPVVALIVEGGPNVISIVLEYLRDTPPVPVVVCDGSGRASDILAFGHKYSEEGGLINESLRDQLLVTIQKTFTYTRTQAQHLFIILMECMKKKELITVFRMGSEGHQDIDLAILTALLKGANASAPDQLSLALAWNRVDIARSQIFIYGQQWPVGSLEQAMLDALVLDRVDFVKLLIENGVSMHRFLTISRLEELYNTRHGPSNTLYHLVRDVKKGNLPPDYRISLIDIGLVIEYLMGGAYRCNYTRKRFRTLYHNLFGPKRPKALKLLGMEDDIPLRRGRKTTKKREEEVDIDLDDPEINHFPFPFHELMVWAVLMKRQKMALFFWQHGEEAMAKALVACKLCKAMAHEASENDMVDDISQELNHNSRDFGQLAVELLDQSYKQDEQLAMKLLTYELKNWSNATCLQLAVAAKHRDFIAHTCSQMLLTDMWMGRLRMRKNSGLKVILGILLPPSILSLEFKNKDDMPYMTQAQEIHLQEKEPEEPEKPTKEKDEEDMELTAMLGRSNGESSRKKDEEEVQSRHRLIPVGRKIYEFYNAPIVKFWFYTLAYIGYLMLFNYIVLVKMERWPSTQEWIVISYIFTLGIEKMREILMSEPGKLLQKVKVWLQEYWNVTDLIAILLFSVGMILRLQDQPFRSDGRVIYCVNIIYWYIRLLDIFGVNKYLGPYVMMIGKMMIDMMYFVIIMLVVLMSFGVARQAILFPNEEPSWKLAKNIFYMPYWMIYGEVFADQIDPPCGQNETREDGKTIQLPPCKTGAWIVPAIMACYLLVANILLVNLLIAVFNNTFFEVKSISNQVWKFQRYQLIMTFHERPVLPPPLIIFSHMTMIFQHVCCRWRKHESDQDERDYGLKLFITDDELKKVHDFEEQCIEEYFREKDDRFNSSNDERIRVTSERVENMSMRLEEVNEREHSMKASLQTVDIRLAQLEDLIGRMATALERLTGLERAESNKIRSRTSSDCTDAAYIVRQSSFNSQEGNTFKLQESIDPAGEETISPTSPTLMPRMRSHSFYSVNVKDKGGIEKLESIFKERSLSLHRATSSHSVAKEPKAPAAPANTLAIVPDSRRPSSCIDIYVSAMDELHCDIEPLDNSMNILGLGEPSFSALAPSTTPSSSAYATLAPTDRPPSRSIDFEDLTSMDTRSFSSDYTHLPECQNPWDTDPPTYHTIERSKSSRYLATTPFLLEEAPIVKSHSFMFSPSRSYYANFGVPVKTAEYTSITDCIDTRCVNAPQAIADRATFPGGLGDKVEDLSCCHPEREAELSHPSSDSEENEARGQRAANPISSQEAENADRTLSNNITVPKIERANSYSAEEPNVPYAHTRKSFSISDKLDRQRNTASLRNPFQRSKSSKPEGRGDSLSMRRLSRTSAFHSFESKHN

Row | Structure (SMILES) | IC50 [µM]
1 | Cc1ncsc1COc1ccc2oc(C)c(C(=O)N[C@@H](CS(C)(=O)=O)C(N)=O)c2c1 [compound 272, (R)-N-(1-amino-3-(methylsulfonyl)-1-oxopropan-2-yl)-2-methyl-5-((4-methylthiazol-5-yl)methoxy)benzofuran-3-carboxamide] | < 1
2 | Cc1nc(C)c(COc2ccc3oc(C)c(C(=O)N[C@@H](CO)C(N)=O)c3c2)s1 [compound 298, (S)-N-(1-amino-3-hydroxy-1-oxopropan-2-yl)-5-((2,4-dimethylthiazol-5-yl)methoxy)-2-methylbenzofuran-3-carboxamide] | < 1
3 | Cc1oc2ccc(OCc3ccnn3CC(F)F)cc2c1C(=O)N[C@@H](CO)C(N)=O [compound 295, (S)-N-(1-amino-3-hydroxy-1-oxopropan-2-yl)-5-((1-(2,2-difluoroethyl)-1H-pyrazol-5-yl)methoxy)-2-methylbenzofuran-3-carboxamide] | < 1
4 | CNC(=O)[C@@H](CO)NC(=O)c1c(C)oc2ccc(OCc3scnc3C)cc12 [compound 276, (R)-N-(3-hydroxy-1-(methylamino)-1-oxopropan-2-yl)-2-methyl-5-((4-methylthiazol-5-yl)methoxy)benzofuran-3-carboxamide] | < 1

same assay, conditions: PS 50 μM, cpds 300-399

Row | Structure (SMILES) | IC50 [µM]
5 | Cc1ncsc1COc1ccc2oc(C)c(C(=O)NCC3(F)CC3)c2c1 [compound 373, N-((1-fluorocyclopropyl)methyl)-2-methyl-5-((4-methylthiazol-5-yl)methoxy)benzofuran-3-carboxamide] | < 1
6 | Cc1oc2ccc(OCc3cccnc3N3CCC3)cc2c1C(=O)NC1CCNCC1(F)F (single isomer, unassigned) [cpd 336-En 1] | < 1
7 | Cc1oc2ccc(OCc3cccnc3C(N)=O)cc2c1C(=O)NC1(CO)CCOCC1 [compound 325] | 1 to 20

same assay, conditions: PS (50 μM) stimulated, cpd 001-199

Row | Structure (SMILES) | IC50 [µM]
8 | Cc1ncsc1COc1ccc2oc(C)c(C(=O)Nc3cnn(C)c3)c2c1 [compound 152, 2-methyl-N-(1-methyl-1H-pyrazol-4-yl)-5-((4-methylthiazol-5-yl)methoxy)benzofuran-3-carboxamide] | < 1
9 | O=C(NC1CCNCC1(F)F)c1c(C(F)F)oc2ccc(OCc3cccnc3C(F)(F)F)cc12 (single isomer, unassigned) [199-En 1, 2-(difluoromethyl)-N-(3,3-difluoropiperidin-4-yl)-5-((2-(trifluoromethyl)pyridin-3-yl)methoxy) -benzofuran-3-carboxamide] | < 1
10 | Cc1ncsc1COc1ccc2oc(C)c(C(=O)NC3(CO)CCOCC3)c2c1 [compound 054, N-(4-(hydroxymethyl)tetrahydro-2H-pyran-4-yl)-2-methyl-5-((4-methylthiazol-5-yl)methoxy)-benzofuran-3-carboxamide] | < 1
11 | Cc1oc2ccc(OCc3nccs3)cc2c1C(=O)N[C@H]1CCNC1 [compound 025, (S)-2-methyl-N-(pyrrolidin-3-yl)-5-(thiazol-2-ylmethoxy)benzofuran-3-carboxamide] | < 1
12 | Cc1cc2oc(C)c(C(=O)NC3CCNCC3(F)F)c2cc1OCc1cccnc1C(F)(F)F (single isomer, unassigned) [179-En 2, N-(3,3-difluoropiperidin-4-yl)-2,6-dimethyl-5-((2-(trifluoromethyl)pyridin-3-yl)methoxy)benzo-furan-3-carboxamide] | > 20
13 | Cc1ncsc1COc1ccc2oc(C)c(C(=O)NC3CCOC3)c2c1 (single isomer, unassigned) [cpd 159-En 1] | < 1
14 | COc1ncccc1COc1ccc2oc(C)c(C(=O)NC3(CO)CCOCC3)c2c1 [compound 058, N-(4-(hydroxymethyl)tetrahydro-2H-pyran-4-yl)-5-((2-methoxypyridin-3-yl)methoxy)-2-methyl-benzofuran-3-carboxamide] | < 1
15 | Cc1oc2ccc(OCc3nc(C(F)(F)F)cs3)cc2c1C(=O)NC1CCOC1 (stereo not drawn) [compound 057, 2-methyl-N-(tetrahydrofuran-3-yl)-5-((4-(trifluoromethyl)thiazol-2-yl)methoxy)benzofuran-3-carboxamide] | > 20
16 | Cc1oc2ccc(OCc3cccnc3C(F)(F)F)cc2c1C(=O)Nc1cn[nH]c1 [compound 158, 2-methyl-N-(1H-pyrazol-4-yl)-5-((2-(trifluoromethyl)pyridin-3-yl)methoxy)benzofuran-3-carboxamide] | < 1
17 | Cc1oc2ccc(OCc3cncc(C(F)(F)F)c3)cc2c1C(=O)N[C@H]1CCN(C(=O)OC(C)(C)C)C1 [compound 077, tert-butyl (S)-3-(2-methyl-5-((5-(trifluoromethyl)pyridin-3-yl)methoxy)benzofuran-3-carboxamido)pyrrolidine-1-carboxylate] | > 20
18 | Cc1ncsc1COc1ccc2oc(C)c(C(=O)NC3CNCC(F)(F)C3)c2c1 (single isomer, unassigned) [cpd 115-En 1] | < 1
19 | Cc1ncsc1COc1ccc2oc(C)c(C(=O)NC3COCC3O)c2c1 (single isomer, unassigned; dia 1) [162-Dia 1-En2] | < 1

same assay, conditions: PS (50 μM) stimulated, cpds. 400-499

Row | Structure (SMILES) | IC50 [µM]
20 | Cc1ncsc1COc1ccc2oc(C)c(C(=O)NC(C)CO)c2c1 (single isomer, unassigned) [cpd 491-En 1] | < 1
21 | Cc1oc2ccc(OCc3nccn3C)cc2c1C(=O)NC(C)(C)CO [compound 481, N-(1-hydroxy-2-methylpropan-2-yl)-2-methyl-5-((1-methyl-1H-imidazol-2-yl)methoxy)benzofuran-3-carboxamide] | < 1
22 | Cc1oc2ccc(OCc3cccnc3O)cc2c1C(=O)NC1(CO)CC1 [compound 420, N-(1-(hydroxymethyl)cyclopropyl)-5-((2-hydroxypyridin-3-yl)methoxy)-2-methylbenzofuran-3-carboxamide] | < 1
23 | Cc1ncc(COc2ccc3oc(C)c(C(=O)NC4(CO)CCC4)c3c2)s1 [compound 414, N-(1-(hydroxymethyl)cyclobutyl)-2-methyl-5-((2-methylthiazol-5-yl)methoxy)benzofuran-3-carboxamide] | < 1

same assay, conditions: PS (50 μM) stimulated, cpds. 500-599

Row | Structure (SMILES) | IC50 [µM]
24 | Cc1ncsc1COc1cc(F)c2oc(C)c(C(=O)NC3CCNCC3(F)F)c2c1 (single isomer, unassigned) [cpd 573-En 1] | < 1
25 | Cc1nc(C)c(COc2ccc3oc(C)c(C(=O)NC4CCNCC4(F)F)c3c2)s1 (single isomer, unassigned) [cpd 563-En 1] | < 1
26 | Cc1cc(COc2ccc3oc(C)c(C(=O)NC4CCNCC4(F)F)c3c2)no1 (single isomer, unassigned) [cpd 553-En 1] | < 1
27 | Cc1oc2ccc(OCc3cccnc3O)cc2c1C(=O)NC1(C(N)=O)COC1 [compound 585, N-(3-carbamoyloxetan-3-yl)-5-((2-hydroxypyridin-3-yl)methoxy)-2-methylbenzofuran-3-carboxamide] | < 1
28 | Cc1csc(COc2ccc3oc(C)c(C(=O)NC4CCNCC4(F)F)c3c2)n1 (single isomer, unassigned) [cpd 552-En 2] | 1 to 20
29 | Cc1oc2ccc(OCc3ncn(C)n3)cc2c1C(=O)NC1CCNCC1(F)F (single isomer, unassigned) [cpd 542-En 1] | 1 to 20
30 | Cc1ncsc1COc1cc(F)c2oc(C)c(C(=O)NC3(C(N)=O)COC3)c2c1 [compound 588, N-(3-carbamoyloxetan-3-yl)-7-fluoro-2-methyl-5-((4-methylthiazol-5-yl)methoxy)benzofuran-3c-arboxamide] | < 1
31 | Cc1oc2ccc(OCc3ncccc3F)cc2c1C(=O)NC1CCNCC1(F)F (single isomer, unassigned) [cpd 566-En 1] | < 1

same assay, conditions: PS (50 μM) stimulated, cpds. 608-666

Row | Structure (SMILES) | IC50 [µM]
32 | Cc1ncc(COc2ccc3oc(C)c(C(=O)NC4(CO)CCOCC4)c3c2)s1 [compound 613, N-(4-(hydroxymethyl)tetrahydro-2H-pyran-4-yl)-2-methyl-5-((2-methylthiazol-5-yl)methoxy)benzofuran-3-carboxamide] | < 1
33 | Cc1oc2ccc(OCc3cnnn3C)cc2c1C(=O)NC1(CO)CCOCC1 [compound 605, N-(4-(hydroxymethyl)tetrahydro-2H-pyran-4-yl)-2-methyl-5-((1-methyl-1H-1,2,3-triazol-5-yl)methoxy)benzofuran-3-carboxamide] | > 20

same assay, conditions: PS (50 μM) stimulated, cpds. 667-751

Row | Structure (SMILES) | IC50 [µM]
34 | Cc1oc2ccc(OCc3c[nH]nc3C(F)(F)F)cc2c1C(=O)NC1(CO)CCNC1=O (single isomer, unassigned) [730-En 1, N-(3-(Hydroxymethyl)-2-oxopyrrolidin-3-yl)-2-methyl-5-((3-(trifluoromethyl)-1H-pyrazol-4-yl)methoxy)benzofuran-3-carboxamide] | < 1
35 | Cc1oc2ccc(OCc3ccnn3C(C)C)cc2c1C(=O)N[C@@H](CO)C(N)=O [compound 676, (S)-N-(1-amino-3-hydroxy-1-oxopropan-2-yl)-5-((1-isopropyl-1H-pyrazol-5-yl)methoxy)-2-methylbenzofuran-3-carboxamide] | < 1
36 | Cc1ncc(COc2ccc3oc(C)c(C(=O)N[C@@H](CO)C(N)=O)c3c2)cn1 [compound 708, (S)-N-(1-Amino-3-hydroxy-1-oxopropan-2-yl)-2-methyl-5-((2-methylpyrimidin-5-yl)methoxy)benzofuran-3-carboxamide] | < 1

— patent publication US12209081B2 (Katholieke Universiteit Leuven, priority 2020, dated 2025)
